Data as given in ChEMBL document CHEMBL2029339, “Acylthiourea, acylurea, and acylguanidine derivatives with potent hedgehog inhibiting activity” (J Med Chem, 2012).
Active and inactive are the calls of the source. The rule behind the calls is not given here.

Experiments:
[1] = system: C3H 10T1/2; assay: Inhibition of SAG-induced differentiation of mouse mesenchymal pluripotent C3H10T1/2 cells to alkaline phosphatase positive oeseoblasts at 10 uM after 6 days; details: C3H 10T1/2, 6 days
[2] = target: Smoothened (Mus musculus) (UniProt P56726); assay: Inhibition of Smo-mediated Hh signaling in mouse Shh-light2 cells at 3 uM by luciferase reporter gene assay; details: Shh Light II
[3] = system: C3H 10T1/2; assay: Inhibition of SAG-induced differentiation of mouse mesenchymal pluripotent C3H10T1/2 cells to alkaline phosphatase positive oeseoblasts after 6 days; details: C3H 10T1/2, 6 days
[4] = target: Smoothened (Mus musculus) (UniProt P56726); assay: Inhibition of Smo-mediated Hh signaling in mouse Shh-light2 cells at 0.3 uM by luciferase reporter gene assay; details: Shh Light II
[5] = target: Smoothened (Mus musculus) (UniProt P56726); assay: Inhibition of Smo-mediated Hh signaling in mouse Shh-light2 cells by luciferase reporter gene assay

Smoothened (Mus musculus), sequence (P56726 whole entry, looked up): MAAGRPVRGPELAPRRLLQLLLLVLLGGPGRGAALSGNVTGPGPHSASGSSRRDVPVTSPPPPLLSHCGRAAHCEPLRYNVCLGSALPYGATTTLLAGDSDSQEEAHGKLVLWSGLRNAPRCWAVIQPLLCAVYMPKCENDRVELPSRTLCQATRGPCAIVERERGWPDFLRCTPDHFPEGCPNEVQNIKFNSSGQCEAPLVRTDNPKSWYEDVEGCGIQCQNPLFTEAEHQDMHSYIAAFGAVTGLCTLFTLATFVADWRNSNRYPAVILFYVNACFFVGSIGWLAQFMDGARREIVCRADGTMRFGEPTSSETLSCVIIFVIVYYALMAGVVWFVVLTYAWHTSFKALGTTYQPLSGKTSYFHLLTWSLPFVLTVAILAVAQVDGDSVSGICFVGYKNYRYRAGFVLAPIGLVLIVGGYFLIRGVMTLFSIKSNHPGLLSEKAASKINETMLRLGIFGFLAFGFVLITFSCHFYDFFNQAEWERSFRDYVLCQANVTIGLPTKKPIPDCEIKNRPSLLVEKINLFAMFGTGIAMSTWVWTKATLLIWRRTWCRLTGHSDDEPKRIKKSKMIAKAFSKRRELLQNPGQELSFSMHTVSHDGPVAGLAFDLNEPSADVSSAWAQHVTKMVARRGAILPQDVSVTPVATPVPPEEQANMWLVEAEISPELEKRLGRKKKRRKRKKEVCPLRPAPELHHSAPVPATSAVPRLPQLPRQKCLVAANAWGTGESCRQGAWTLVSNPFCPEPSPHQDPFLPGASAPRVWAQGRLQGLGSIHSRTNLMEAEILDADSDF

Compound | inhibition [2] | IC50 [3] | inhibition [4] | IC50 [5] | inhibition at 10 µM [1]
COc1cc(C(=O)NC(=S)Nc2cccc(NC(=O)c3cccc4ccccc34)c2)cc(OC)c1OC | 64% | – | – | – | 63%
CCOc1cc(C(=O)NC(=S)Nc2cccc(NC(=O)c3ccccc3)c2)cc(OCC)c1OCC | 100% | 0.8 µM | – | – | –
COc1cc(C(=O)NC(=N)Nc2ccc(C)c(NC(=O)c3ccc(-c4ccc(F)cc4)cc3)c2)cc(OC)c1OC | – | 0.011 µM | – | 0.014 µM | –
O=C(NC(=S)Nc1cccc(NC(=O)c2ccccc2)c1)c1ccc2c(c1)OCCO2 | inactive | – | – | – | –
COc1cc(C(=O)NC(=S)Nc2cccc(NC(=O)c3ccc(N4CCOCC4)cc3)c2)cc(OC)c1OC | 90% | – | – | – | 55%
CCOc1cc(C(=O)NC(=O)Nc2cccc(NC(=O)c3ccccc3)c2)cc(OCC)c1OCC | 24% | – | 13% | – | 45%
COc1cc(C(=O)NC(=O)Nc2cccc(NC(=O)c3ccc(Cl)cc3)c2)cc(OC)c1OC | 96% | – | 6% | – | 95%
COc1cc(C(=O)NC(=N)Nc2cccc(-n3ccc4ccccc43)c2)cc(OC)c1OC | – | 0.39 µM | – | 0.9 µM | –
COc1cc(C(=O)NC(=N)Nc2ccc(Cl)c(C(=O)Nc3ccccc3)c2)cc(OC)c1OC | – | 0.44 µM | – | 0.16 µM | –
COc1cc(C(=O)NC(=S)Nc2cccc(NC(=O)c3ccc4ccccc4c3)c2)cc(OC)c1OC | 24% | – | – | – | 59%
COc1cc(C(=O)NC(=N)Nc2ccc(C)c(C(=O)Nc3ccccc3)c2)cc(OC)c1OC | – | 0.2 µM | – | 0.19 µM | –
COc1cc(C(=O)NC(=S)Nc2cccc(-n3cnc4ccccc43)c2)cc(OC)c1OC | 84% | – | – | – | 60%
COc1cc(C(=O)NC(=S)Nc2cccc(NC(=O)c3cccs3)c2)cc(OC)c1OC | 13% | – | – | – | 60%
COc1cc(C(=O)NC(=S)Nc2ccc(Cl)c(C(=O)Nc3ccc(N(C)C)cc3)c2)cc(OC)c1OC | 99% | – | 4% | – | 98%
COc1ccc(C(=O)NC(=S)Nc2cccc(NC(=O)c3ccccc3)c2)c(OC)c1 | 34% | 4.1 µM | – | – | –
COc1cc(C(=O)NC(=S)Nc2cccc(NC(=O)c3cc(OC)c(OC)c(OC)c3)c2)cc(OC)c1OC | 37% | – | – | – | 74%

Compound | inhibition [2] | IC50 [3] | inhibition [4] | IC50 [5] | inhibition at 10 µM [1]
COc1cc(C(=O)NC(=S)Nc2cccc(NC(=O)c3ccco3)c2)cc(OC)c1OC | 53% | – | – | – | 67%
COc1cc(C(=O)NC(=O)Nc2cccc(NC(=O)c3ccccc3)c2)cc2c1OCO2 | 2% | – | 1% | – | 32%
COc1cc(C(=O)NC(=S)Nc2cccc(-n3ccc4ccccc43)c2)cc(OC)c1OC | 69% | – | – | – | 92%
COc1cc(C(=O)NC(=S)Nc2cccc(-c3cn4ccsc4n3)c2)cc(OC)c1OC | 92% | – | – | 1.1 µM | 98%
COc1cc(C(=O)NC(=S)Nc2cccc(NC(=O)C3CCCCC3)c2)cc(OC)c1OC | 14% | – | – | – | 26%
COc1cc(C(=O)NC(=S)Nc2cccc(NC(=O)c3ccccc3)c2)cc2c1OCO2 | 92% | 1.1 µM | – | – | –
COc1cc(C(=O)NC(=S)Nc2cccc(NC(=O)C(C)C)c2)cc(OC)c1OC | 6% | – | – | – | 6%
COc1ccc(NC(=O)c2cc(NC(=S)NC(=O)c3cc(OC)c(OC)c(OC)c3)ccc2Cl)cc1 | 100% | – | 10% | – | 88%
COc1ccc(C(=O)Nc2cccc(NC(=O)NC(=O)c3cc(OC)c(OC)c(OC)c3)c2)cc1 | 103% | – | 40% | – | 99%
COc1cc(C(=O)NC(=S)Nc2cccc(NC(=O)Nc3ccc(-c4ccccc4)cc3)c2)cc(OC)c1OC | 71% | – | – | – | 91%
COc1ccc(C(=O)NC(=S)Nc2cccc(NC(=O)c3ccccc3)c2)cc1OC | 71% | – | – | – | 45%
COc1cc(C(=O)NC(=S)Nc2ccc(Cl)c(C(=O)Nc3ccc(Cl)cc3)c2)cc(OC)c1OC | 98% | – | 7% | – | 96%
CCOc1cc(C(=O)NC(=S)Nc2cccc(NC(=O)c3ccccc3)c2)cc(OC)c1OCC | 100% | 0.8 µM | – | – | –
COc1cc(C(=O)NC(=O)Nc2cccc(NC(=O)C(C)C)c2)cc(OC)c1OC | 62% | – | 4% | – | 99%
COc1cc(OC)cc(C(=O)NC(=S)Nc2cccc(NC(=O)c3ccccc3)c2)c1 | 84% | 1.9 µM | – | – | –
COc1cc(C(=O)NC(=O)Nc2cccc(NC(=O)c3ccc4ccccc4c3)c2)cc(OC)c1OC | 3% | – | 1% | – | 4%

Continued, in another order:

inhibition [2] | IC50 [3] | inhibition [4] | IC50 [5] | Compound | inhibition at 10 µM [1]
100% | 0.6 µM | 72% | – | COc1cc(C(=O)NC(=S)Nc2ccc(C)c(NC(=O)c3cccc(-c4ccccc4)c3)c2)cc(OC)c1OC | 97%
78% | – | – | – | COc1cc(C(=O)NC(=S)Nc2cccc(NC(=O)Nc3ccccc3)c2)cc(OC)c1OC | 104%
67% | – | – | – | COc1cc(C(=O)NC(=S)Nc2cccc(NC(=O)c3ccncc3)c2)cc(OC)c1OC | 82%
48% | – | 9% | – | COc1cc(C(=O)NC(=S)Nc2cccc(NC(=O)c3ccc(-c4ccccc4)cc3)c2C)cc(OC)c1OC | 7%
93% | 1.6 µM | – | – | COc1ccc(C(=O)Nc2cccc(NC(=S)NC(=O)c3cc(OC)c(OC)c(OC)c3)c2)cc1 | 85%
33% | – | 1% | – | COc1ccc(NC(=S)NC(=O)c2cc(OC)c(OC)c(OC)c2)cc1NC(=O)c1ccccc1 | 8%
99% | – | 26% | – | COc1cc(C(=O)NC(=O)Nc2cccc(NC(=O)c3ccc(-c4ccccc4)cc3)c2C)cc(OC)c1OC | 104%
100% | 0.9 µM | 60% | – | COc1cc(C(=O)NC(=S)Nc2ccc(C)c(NC(=O)c3ccccc3)c2)cc(OC)c1OC | 99%
99% | 0.6 µM | – | – | CCOc1c(OC)cc(C(=O)NC(=S)Nc2cccc(NC(=O)c3ccccc3)c2)cc1OC | –
– | 0.18 µM | 88% | – | COc1cc(C(=O)NC(=N)Nc2ccc(C)c(NC(=O)c3ccccc3)c2)cc(OC)c1OC | –
97% | 0.5 µM | 59% | – | COc1cc(C(=O)NC(=S)Nc2ccc(C)c(NC(=O)c3ccc(Oc4ccccc4)cc3)c2)cc(OC)c1OC | 99%
66% | 2.5 µM | – | – | COc1cc(C(=O)NC(=S)Nc2cccc(NC(=O)c3ccccc3Cl)c2)cc(OC)c1OC | 80%
99% | 0.8 µM | – | – | COc1cc(C(=O)NC(=S)Nc2cccc(NC(=O)c3ccc(Cl)cc3)c2)cc(OC)c1OC | 96%
99% | 2 µM | – | – | COc1cccc(C(=O)Nc2cccc(NC(=S)NC(=O)c3cc(OC)c(OC)c(OC)c3)c2)c1 | 89%
54% | – | 2% | – | COc1cc(C(=O)NC(=S)Nc2cccc(NC(=O)c3ccccc3)c2C)cc(OC)c1OC | 44%
92% | – | 4% | – | COc1cc(C(=O)NC(=S)Nc2cc(NC(=O)c3ccccc3)ccc2F)cc(OC)c1OC | 97%
49% | 2 µM | – | – | COc1ccccc1C(=O)Nc1cccc(NC(=S)NC(=O)c2cc(OC)c(OC)c(OC)c2)c1 | 99%
98% | – | 21% | – | COc1cc(C(=O)NC(=S)Nc2ccc(F)c(NC(=O)c3ccccc3)c2)cc(OC)c1OC | 96%
